From patent publication US20170152285A1, “EXTRACTING METHOD OF KUGUACIN, PHARMACEUTICAL COMPOSITION COMPRISING THE KUGUACIN AND USE THEREOF” (priority 2015, published 2017)

What was measured:
[1] = test system: p-ERK, p-JNK and p-p38; test: Western blot of phosphorylated MAPK proteins in THP-1 induced by P. gingivalis; assay type: cell-based, Human; conditions: 1 μM to 5 μM, induced by P. gingivalis for 30 mins, dose-dependent
Protocol: (§1) To analyze the effect of the M. charantia extract on phosphorylation of MAPK proteins, THP-1 cell line cultured by the method described in Example 3 (2×10^6 cells/mL) was inoculated in 6-cm petridishes. Every 200 μL of cell culture was added 800 μL of fresh media containing DMSO with P. gingivalis (MOI=10), different concentrations of samples from Examples 1 and 2 or luteolin ([…]) and then co-cultured in a incubator at 37° C. in 5% of CO2 for 30 mins. Next, the cells were collected and centrifuged to remove the supernatant. After adding phosphate buffer solution (PBS), the collected cells were shook and washed repeatedly for 3 times. Then 100 μL of 1× lysis buffer was added in. The mixture was centrifuged at 12,000 rpm and 4° C. for 15 mins, and the supernatant was collected. The protein was quantified to the identical concentration. After protein electrophoresis was conducted, Western blot was conducted to analyze the level of phosphorylated ERK, JNK and p38 (i.e. p-ERK, p-JNK and p-p38).

[2] = test system: TNF-α; test: Periodontitis mouse model, TNF-α mRNA in gum tissue; assay type: in vivo, C57BL/6 mice; conditions: 5 μg injected into gum tissue, day 14
Protocol: (§2) To assess the effect of kuguacin on anti-inflammation in vivo, 6-week old C57BL/6 male mice were used in the present embodiment. The mice were purchased from Laboratory Animal Center of National Taiwan University, and fed with commercial chow diet and drinking water. After free access of food for 7 days, the mice were grouped for experiments, five animals for each group.
(§3) The concentration of P. gingivalis was adjusted to 1×10^9 CFU/mL by steriled PBS, then centrifuged at 10,000 rpm for 5 min. After removing the supernatant, the pellet was heated in water bath at 80° C. for 30 mins.
(§4) According to the method provided in the reference by Molon et al. to establish animal experiment model. Heat-killed P. gingivalis was injected into the gum tissue of C57BL/6 mice to cause inflammation. The mice were anesthetized by ethylether. Samples and bacteria solution were withdrawn using 0.3-mL insulin syringe needle. 10 μL of bacteria and samples were injected into the gum tissue of the mice. If blisters appeared, the injection was successful. […]
(§5) After sacrificing the mice at the 14th day of the experiment, the gums of lower jaw of the mice were sampled and the gene expressions of COX-2, IL-6 and TNF-α therein were analyzed.

[3] = test system: COX-2; test: Periodontitis mouse model, COX-2 mRNA in gum tissue; assay type: in vivo, C57BL/6 mice; conditions: 5 μg injected into gum tissue, day 14
Protocol: as §2, §3, §4, §5

[4] = test system: IL-6; test: Anti-inflammatory activity assay, IL-6 ELISA, THP-1 co-cultured with P. gingivalis; assay type: cell-based, Human; conditions: for inhibiting the expression of IL-6 induced by P. gingivalis: 1 μM to 5 μM, dose-dependent
Protocol: (§6) P. gingivalis (ATCC 33277/BCRC 14417) purchased from Bioresource Collection and Research Center of Food Industry Research and Development Institute in Hsinchu. P. gingivalis was incubated with TSB medium in an anaerobic incubator at 37° C. in an atmosphere of 86% of N2, 10% of CO2 and 4% of H2. The TSB medium comprises 15 g of Tryptic Soy broth (Becton, Dicksinson and company, U.S.A.), 2.5 g of yeast extract, 0.5 mL of Hemin and 0.1 mL of Vitamin K dissolved in 500 mL of deionized H2O.
(§7) THP-1 cell line (2×10^6 cells/mL) cultured by the method described in Example 3 was placed into a 96-well plate, and then 100 μL of RPMI medium without P. gingivalis was added or 0.1% dimethyl sulfoxide (DMSO) containing P. gingivalis with its multiplicity of infection (MOI) of 10 was added as negative controls. Different concentrations of samples from Examples 1 and 2 were added or luteolin (10 μM) was added as positive control. After co-culturing in an incubator at 37° C. in 5% of CO2 for 24 hours, the supernatants were collected. Then, the levels of IL-6 and IL-8 were analyzed by commercial ELISA kits for IL-6 and IL-8 (Invitrogen).
(§8) The term “MOI” is multiplicity of infection which means the number of the bacteria infecting each cell (the number of bacteria/the number of cells). For example, MOI=1 refers to every cell was infected by one bacterial colony.

[5] = test system: IL-8; test: Anti-inflammatory activity assay, IL-8 ELISA, THP-1 co-cultured with P. gingivalis; assay type: cell-based, Human; conditions: for inhibiting the expression of IL-8 induced by P. gingivalis: 1 μM to 5 μM, dose-dependent
Protocol: as §6, §7, §8

[6] = test system: iNOS; test: Periodontitis mouse model, iNOS mRNA in gum tissue; assay type: in vivo, C57BL/6 mice; conditions: injected into gum tissue with P. gingivalis, day 14
[7] = test system: IL-6; test: Periodontitis mouse model, IL-6 mRNA in gum tissue; assay type: in vivo, C57BL/6 mice; conditions: 5 μg injected into gum tissue, day 14
Protocol: as §2, §3, §4, §5

[8] = test system: ERK; test: Western blot of phosphorylated ERK in THP-1 induced by P. gingivalis; assay type: cell-based, Human; conditions: 10 μM and 20 μM, induced by P. gingivalis for 30 mins
Protocol: as §1

Compound	phosphorylation of the signal transduction proteins (p-ERK, p-JNK, p-p38) in THP-1 cells [1]	mRNA expression of TNF-α in gum tissue, compared to group induced by P. gingivalis as 100% [2] [%]	mRNA expression of COX-2 in gum tissue, compared to group induced by P. gingivalis as 100% [3] [%]	inhibiting the expression of IL-6 induced by P. gingivalis [4]	inhibiting the expression of IL-8 induced by P. gingivalis [5]	mRNA expression of iNOS in gum tissue [6]	mRNA expression of IL-6 in gum tissue, compared to group induced by P. gingivalis as 100% [7] [%]	inhibiting the expression of IL-6 by THP-1 cell line ([4]; 5 μM to 20 μM)	inhibiting the phosphorylation of ERK [8]	inhibiting the expression of IL-8 by THP-1 cell line ([5]; 5 μM to 20 μM)
CC(CC=CC(C)(C)O)C1CCC2(C)C3C=CC45OC(O)C3(CCC12C)C4CCC(O)C5(C)C (centres unmarked) [fraction 5211, 5,19-epoxycucurbita-6,23-diene-3,19,25-triol]	reduced	40	31	effective on inhibiting	effective on inhibiting	increase	34			
C=C(C)/C=C/C[C@@H](C)[C@H]1CC[C@@]2(C)[C@@H]3C=C[C@@]45O[C@@H](O)[C@]3(CC[C@]12C)[C@@H]4CC[C@H](O)C5(C)C [fraction 532, 5β,19-epoxycucurbita-6,23(E),25(26)-triene-3β,19(R)-diol]								effective on inhibiting	effective in inhibiting	effective on inhibiting
C[C@H](C/C=C/C(C)(C)O)[C@H]1CC[C@@]2(C)[C@@H]3[C@@H](O)C=C4[C@@H](CC[C@H](O)C4(C)C)[C@]3(C=O)CC[C@]12C [fraction 5212, 3,7,25-trihydroxycucurbita-5,23-dien-19-al]	reduced	67	49	effective on inhibiting	effective on inhibiting	increase	67			
